{"source": "patent US10987325B2", "about": "“Compositions and uses thereof for treating inflammatory diseases and probiotic compositions” (CHAIN Biotechnology Limited, priority 2016, dated 2021)", "key": {"[1]": {"system": "ex vivo colon tissue samples", "assay": "Ex-vivo human colon tissue model, TNF-α stimulus, protein in culture supernatants by Luminex", "assay_type": "cell-based", "from_the_text": "Colorectal specimens can be obtained from surgical resections of intestinal tissue or from biopsies, after receiving signed informed consent from the patients. Following resection of tissue, specimens are kept in a specimen collection pot containing DMEM for transportation to the laboratory. Put the specimen in a Petri plate with some medium. Strip the muscle from the resected specimen with sterile scalpel. Transfer the remaining tissue into a new Petri plate with medium and cut the tissue into explants comprising both epithelial and muscularis mucosae (Berry […]. Methods Mol. Biol. 2011; 665: 133-60). Proceed to assay. To induce inflammation, explants are incubated with 100 μl of inflammatory stimulus (TNF-α 15 μg/ml) in 96-well U-bottom sterile plates. Incubate explants for one hour with […] of complete medium (DMEM containing FCS, L-glutamine and antibiotics). […] Tissue explants are then cultured at 37° C. in an atmosphere containing 5% CO2 for 24 hours. Negative controls are tissue explants cultured without stimulus nor candidate compounds (add 200 μl of complete medium). Positive controls are explants treated only with inflammatory stimulus. Following culture, remove tissue explants from culture wells, spin down plates and harvest 180 μl of the culture supernatant. Freeze supernatants and tissue explants at -80° C. Proceed to quantification of analytes of interest in supernatants and/or tissue explants. The Luminex method was used to determine protein concentration in culture supernatants: Luminex Protocol: In house assay was conducted by Dr Carolina Herrera at St Mary's Hospital, Paddington, London. Luminex Assay Buffer: PBS, goat serum, mouse serum, Tween 20, Tris pH 7-8. Luminex Wash Buffer: PBS, Tween-20. Procedure: […] Relative protein level [ng/mL] was determined using a standard curve."}, "[2]": {"system": "ex vivo colon tissue samples", "assay": "Ex-vivo human colon tissue model, TNF-α stimulus, Proteome Profiler Human XL Cytokine Array", "assay_type": "cell-based", "conditions": "TNF-α 60 min then 10 mM for 24 hours, versus TNF-α alone", "procedure": "To induce inflammation, explants are incubated with 100 μl of inflammatory stimulus (TNF-α 15 μg/ml) in 96-well U-bottom sterile plates. Incubate explants for one hour with […] of complete medium (DMEM containing FCS, L-glutamine and antibiotics). […] Tissue explants are then cultured at 37° C. in an atmosphere containing 5% CO2 for 24 hours. Negative controls are tissue explants cultured without stimulus nor candidate compounds (add 200 μl of complete medium). Positive controls are explants treated only with inflammatory stimulus. Following culture, remove tissue explants from culture wells, spin down plates and harvest 180 μl of the culture supernatant. Freeze supernatants and tissue explants at −80° C. Proceed to quantification of analytes of interest in supernatants and/or tissue explants. A Proteome Profiler™ Array was used to measure the relative abundance of a larger set of proteins and cytokines involved in the immune response. The experimental conditions and the preparation of the colon tissue samples was the same as described above. The Human XL Cytokine Array Kit (www.rndsystems.com), Catalog Number ARY022 was used for this experiment. Cytokines, chemokines and growth factors are extracellular signaling molecules that mediate cell to cell communication. These molecules are released from cells and have critical roles in many biological processes such as cellular growth, differentiation, gene expression, migration, immunity and inflammation. In most biological processes, multiple cytokines operate in a large network, where the action of one cytokine is regulated by the presence or absence of other cytokines. The Human XL Cytokine Array Kit is a rapid, sensitive, and economic tool to simultaneously detect cytokine differences between samples. The relative expression levels of 102 human soluble proteins can be determined without performing numerous immunoassays. Capture and control antibodies have been spotted in duplicate on nitrocellulose membranes. […]"}, "[3]": {"system": "IL-23", "assay": "Primary human intestinal organoids, TNF-α (60 ng/mL), IL-23 mRNA at increasing concentrations, qPCR", "assay_type": "cell-based", "conditions": "24 hours; for impact on IL-23 expression compared with butyrate: at 10-100 μM", "procedure": "Primary human intestinal organoids were cultured for 8 weeks prior to experiments as described in […] et al. (2013) Stem Cell Reports."}, "[4]": {"system": "primary human intestinal organoids", "assay": "Primary human intestinal organoids, TNFα (40 ng/mL) induced inflammation, mRNA of NF-κB and TNFα by qPCR", "assay_type": "cell-based", "conditions": "10 μM, 18 hours"}, "[5]": {"system": "primary human intestinal organoids", "assay": "Primary human intestinal organoids, TNF-α (40 ng/mL) induced inflammation, mRNA panel of inflammation factors by qPCR"}, "[6]": {"conditions": "TNF-α 60 min then 10 mM for 24 hours, versus TNF-α alone"}, "[7]": {"conditions": "ex vivo colon tissue, data not shown"}, "[8]": {"conditions": "TNF-α 40 ng/mL, sodium salts at 10 μM, 18 hours, versus TNF-α alone"}}, "data": [{"substance": "(R)-3-hydroxybutyrate [(R)-3-HB]", "values": [{"measurement": "protein concentration of IL-1β", "setting": "[1]; [6]", "result": "decreased"}, {"measurement": "protein concentration of IL-6", "setting": "[1]; [6]", "result": "decreased"}, {"measurement": "protein concentration of IL-12", "setting": "[1]; [6]", "result": "decreased"}, {"measurement": "protein concentration of anti-inflammatory cytokine IL-10", "setting": "[1]; [6]", "result": "increased"}, {"measurement": "effect on major protective regulators of intestinal inflammation compared with butyrate", "setting": "[1]; [7]", "result": "greater inducing effect"}, {"measurement": "effect on multiple pro-inflammatory regulators of IBD compared with butyrate", "setting": "[1]; [7]", "result": "greater reducing effect"}, {"measurement": "protein concentration of IL-23 (relative abundance, non-quantitative)", "setting": "[2]", "result": "decreased"}, {"measurement": "protein concentration of MMP9 (relative abundance, non-quantitative)", "setting": "[2]", "result": "decreased"}, {"measurement": "protein concentration of TNF-α (relative abundance, non-quantitative)", "setting": "[2]", "result": "decreased"}, {"measurement": "impact on IL-23 expression compared with butyrate", "setting": "[3]", "result": "greater reducing impact"}, {"measurement": "impact on IL-23 expression compared with butyrate", "setting": "[3]; listed as (R)-3HB", "result": "greater reducing effect"}, {"measurement": "concentrations effective at reducing expression of IL-23", "setting": "[3]; sodium salts", "result": "10 to 100", "unit": "µM"}, {"measurement": "mRNA expression of NF-κB", "setting": "[4]", "result": "decreased"}, {"measurement": "mRNA expression of TNF-α", "setting": "[4]", "result": "decreased"}, {"measurement": "mRNA expression of IL-6", "setting": "[5]; [8]", "result": "decreased"}, {"measurement": "mRNA expression of IL-23", "setting": "[5]; [8]", "result": "decreased"}, {"measurement": "mRNA expression of NF-κβ", "setting": "[5]; [8]", "result": "decreased"}, {"measurement": "mRNA expression of TNF-α", "setting": "[5]; [8]", "result": "decreased"}, {"measurement": "mRNA expression of anti-inflammatory cytokine IL-10", "setting": "[5]; [8]", "result": "increased"}, {"measurement": "mRNA expression of anti-inflammatory cytokine TGF-β1", "setting": "[5]; [8]", "result": "increased"}, {"measurement": "effect on major protective regulators of intestinal inflammation compared with butyrate", "setting": "[5]; organoids, data not shown", "result": "greater inducing effect"}, {"measurement": "effect on multiple pro-inflammatory regulators of IBD compared with butyrate", "setting": "[5]; organoids, data not shown", "result": "greater reducing effect"}]}]}
